# From US8541572B2
# Where two headings read alike, the source gives them in different places.
# Assays:
# [1] = Area under the curve determination of plasma levels in rats (rrAUC); assay type: in vivo; conditions: rat, oral 10 mg/kg
# [2] = system: TNF-α production in LPS-stimulated human whole blood; assay: Inhibition of TNF-α production from human whole blood (hWBA); assay type: cell-based; conditions: LPS-stimulated human whole blood, read-out: hWBA
# [3] = plasma 0.5-6 h post-dosing, read-out: RR AUC
# [4] = IC50 for inhibition of TNF-α production
# [5] = plasma 0.5-6 h, read-out: RR AUC (nM · h), rapid rat AUC (rrAUC)
# [6] = Homo sapiens, IC50 for TNF-α production
Structure (SMILES),"AUC [1, 3] [µM·h]",IC50 ([2]; IC50 for TNF-α production) [nM],other results
COc1ccc2c(c1)C(=O)N(C[C@@]1(C#Cc3ccc(C(N)C(F)(F)F)cc3)NC(=O)NC1=O)C2 (stereo partly shown) [Compound 300],2.6,–,–
COc1ccc2c(c1)C(=O)N(C[C@@]1(C#Cc3ccc(-c4cc(N)n(C)n4)cc3)NC(=O)NC1=O)C2 [Compound 709],0.357,–,–
CON=C(c1ccc(C#C[C@]2(CN3Cc4ccc(OC)cc4C3=O)NC(=O)NC2=O)cc1)N1CCOCC1 [Compound 932],–,–,"AUC [1, 5]: 3.17 µM·h"
CCN1CCN(Cc2ccc(C#C[C@]3(CN4Cc5ccc(OC)cc5C4=O)NC(=O)NC3=O)cc2)CC1 [Compound 933],–,238,"AUC [1, 5]: 0.024 µM·h"
CCN1CCN(Cc2ccc(C#C[C@]3(CN4Cc5ccc(OC)c(F)c5C4=O)NC(=O)NC3=O)cc2)CC1 [Compound 974],0.034,–,"IC50 [2, 4]: 125 nM"
COc1ccc2c(c1F)C(=O)N(C[C@@]1(C#Cc3cncc(F)c3)NC(=O)NC1=O)C2 [Compound 1310],1.77,–,–
COc1ccc2c(c1F)C(=O)N(C[C@@]1(C#Cc3ccc(C4(C(N)=O)CCN(C)CC4)cc3)NC(=O)NC1=O)C2 [Compound 1314],0.016,–,"IC50 [2, 4]: 152 nM"
COc1ccc2c(c1)C(=O)N(C[C@@]1(C#Cc3nc(N4C[C@H](O)CC4=O)ccc3OC)NC(=O)NC1=O)C2 [Compound 1503],0.035,–,–
COc1ccc2c(c1)C(=O)N(C[C@@]1(C#Cc3ccc(-c4noc(C(C)C)n4)cc3)NC(=O)NC1=O)C2 [Compound 1505],0.243,–,–
COc1ccc2c(c1F)C(=O)N(C[C@@]1(C#Cc3ccc(C4(O)CCNCC4)cc3)NC(=O)NC1=O)C2 [Compound 1701],0.041,–,–
COc1ccc2c(c1F)C(=O)N(C[C@@]1(C#Cc3ccc(N4C(=O)CCC4C(=O)NC4CC4)cc3)NC(=O)NC1=O)C2 (stereo partly shown) [Compound 1904],0.213,–,"IC50 [2, 4]: 278 nM"
COc1ccc2c(c1)C(=O)N(C[C@@]1(C#Cc3ccc(-c4cc[nH]n4)nc3)NC(=O)NC1=O)C2 [Compound 2235],0.23,–,"IC50 [2, 4]: 231 nM"
COc1ccc2c(c1)C(=O)N(C[C@@]1(C#Cc3ccc(C(=NO)c4ccc(F)cc4)cc3)NC(=O)NC1=O)C2 [Compound 2245],1.07,–,"IC50 ([2]; Homo sapiens, IC50 for inhibition of TNF-α production): 954 nM"
COc1ccc2c(c1Cl)C(=O)N(CC1(C#Cc3cccnc3)NC(=O)NC1=O)C2 (stereo not shown) [Compound 2247],0.38,–,"IC50 [2, 4]: 1000 nM"
COc1ccc2c(c1)C(=O)N(C[C@@]1(C#Cc3cc(Cl)cnc3N)NC(=O)NC1=O)C2 [Compound 2248],4.04,–,–
COc1ccc2c(c1)C(=O)N(C[C@@]1(C#Cc3ccc(F)c(C(O)(O)C(F)(F)F)c3)NC(=O)NC1=O)C2 [Compound 2251],–,–,"AUC [1, 5]: 0.171 µM·h"
COc1ccc2c(c1)C(=O)N(C[C@@]1(C#Cc3ccc(C(O)(O)C(F)(F)F)cc3)NC(=O)NC1=O)C2 [Compound 2252],–,258,"AUC [1, 5]: 0.768 µM·h"
COc1ccc2c(c1)C(=O)N(C[C@@]1(C#Cc3ccc(-c4noc(C)n4)cc3)NC(=O)NC1=O)C2 [Compound 2253],–,2430,"AUC [1, 5]: 4.14 µM·h"
COc1ccc2c(c1)C(=O)N(C[C@@]1(C#Cc3ccc([C@H]4CCC(=O)N4)cc3)NC(=O)NC1=O)C2 [Compound 2259],–,–,"AUC [1, 5]: 0.126 µM·h"
COc1ccc2c(c1)C(=O)N(C[C@@]1(C#Cc3cccnc3-c3cnn(C)c3)NC(=O)NC1=O)C2 [Compound 2263],–,2220,"AUC [1, 5]: 0.187 µM·h"
COc1ccc2c(c1F)C(=O)N(C[C@@]1(C#Cc3cccnc3)NC(=O)NC1=O)C2 [Compound 2267],–,134,"AUC [1, 5]: 2.44 µM·h"

Structure (SMILES),"AUC [1, 3] [µM·h]",IC50 ([2]; IC50 for TNF-α production) [nM],other results
COc1ccc2c(c1)C(=O)N(C[C@@]1(C#Cc3ccc(-c4c(C)nn(C)c4C)nc3)NC(=O)NC1=O)C2 [Compound 2268],–,9030,"AUC [1, 5]: 1.07 µM·h"
COc1ccc2c(c1)C(=O)N(C[C@@]1(C#Cc3ccc(-c4cnn(C)c4)nc3)NC(=O)NC1=O)C2 [Compound 2269],–,–,"AUC [1, 5]: 0.924 µM·h"
COc1ccc2c(c1F)C(=O)N(C[C@@]1(C#Cc3cccnc3C)NC(=O)NC1=O)C2 [Compound 2273],–,193,"AUC [1, 5]: 2.89 µM·h"
COc1ccc2c(c1F)C(=O)N(C[C@@]1(C#Cc3ccc(C)nc3)NC(=O)NC1=O)C2 [Compound 2274],–,396,"AUC [1, 5]: 16.4 µM·h"
CCN1CCC(C(=O)OC)(c2ccc(C#C[C@]3(CN4Cc5ccc(OC)cc5C4=O)NC(=O)NC3=O)cc2)CC1 [Compound 2276],–,288,"AUC [1, 5]: 2.32 µM·h"
COc1ccc2c(c1)C(=O)N(C[C@@]1(C#Cc3ccc(-c4ccccc4O)nc3)NC(=O)NC1=O)C2 [Compound 2277],–,2090,"AUC [1, 5]: 0.271 µM·h"
COc1ccc2c(c1)C(=O)N(C[C@@]1(C#Cc3ccc(CC4(C)NC(=O)NC4=O)cc3)NC(=O)NC1=O)C2 (stereo partly shown) [Compound 2281],–,–,"IC50 [2, 6]: 1000 nM"
COC(=O)Cc1ccc(C#C[C@]2(CN3Cc4ccc(OC)cc4C3=O)NC(=O)NC2=O)cc1 [Compound 2284],–,–,"IC50 [2, 6]: 379 nM"
COc1ccc2c(c1)C(=O)N(CC1(C#Cc3cccnc3N3CCN(C)CC3)NC(=O)NC1=O)C2 (stereo not shown) [Compound 2285],–,–,"IC50 [2, 6]: 1230 nM"
COc1ccc2c(c1)C(=O)N(CC1(C#Cc3cccnc3NCCN(C)C)NC(=O)NC1=O)C2 (stereo not shown) [Compound 2286],–,–,"IC50 [2, 6]: 2000 nM"
COc1ccc2c(c1)C(=O)N(C[C@@]1(C#Cc3cccnc3N3CCOCC3)NC(=O)NC1=O)C2 [Compound 2287],–,–,"IC50 [2, 6]: 633 nM"
COc1ccc2c(c1)C(=O)N(C[C@@]1(C#Cc3ccc(NCCN(C)C)nc3)NC(=O)NC1=O)C2 [Compound 2289],–,419,–
COc1ccc2c(c1)C(=O)N(C[C@@]1(C#Cc3cccnc3-c3cncnc3)NC(=O)NC1=O)C2 [Compound 2290],–,1590,–
COc1ccc2c(c1)C(=O)N(C[C@@]1(C#Cc3cccnc3-c3ccncc3)NC(=O)NC1=O)C2 [Compound 2291],–,2260,–
COc1ccc2c(c1)C(=O)N(C[C@@]1(C#Cc3ccc(-c4cn[nH]c4)nc3)NC(=O)NC1=O)C2 [Compound 2292],–,372,–
COc1ccc2c(c1)C(=O)N(C[C@@]1(C#Cc3ccc(C(=NO)N4[C@H](C)CNC[C@@H]4C)cc3)NC(=O)NC1=O)C2 [Compound 2294],–,327,–
COc1ccc2c(c1)C(=O)N(C[C@@]1(C#Cc3ccc(N4CCCCC4=O)cc3)NC(=O)NC1=O)C2 [Compound 2295],–,–,"IC50 [2, 6]: 1390 nM"
COc1ccc2c(c1)C(=O)N(C[C@@]1(C#Cc3ccc(-c4cn[nH]c4N)cc3)NC(=O)NC1=O)C2 [Compound 2296],–,–,"IC50 [2, 6]: 236 nM"
COc1ccc2c(c1)C(=O)N(C[C@@]1(C#Cc3ccc(N4CCC5(CC4)NC(=O)NC5=O)nc3)NC(=O)NC1=O)C2 [Compound 2311],–,–,"IC50 [2, 6]: 348 nM"
COc1ccc2c(c1)C(=O)N(C[C@@]1(C#Cc3ccc4c(c3)CC[C@]43NC(=O)NC3=O)NC(=O)NC1=O)C2 [Compound 2313],–,–,"AUC [1, 5]: 0.53 µM·h"
COc1ccc2c(c1)C(=O)N(C[C@@]1(C#Cc3ccc4c(c3)CC[C@@]43NC(=O)NC3=O)NC(=O)NC1=O)C2 [Compound 2314],–,–,"AUC [1, 5]: 0.218 µM·h"

# Continued, in another order:
"AUC [1, 3] [µM·h]",IC50 ([2]; IC50 for TNF-α production) [nM],Structure (SMILES),other results
0.012,–,COc1ccc2c(c1)C(=O)N(C[C@@]1(C#Cc3ccc4c(c3)CN(C)C(=O)N4)NC(=O)NC1=O)C2 [Compound 306],–
0.011,–,COc1ccc2c(c1)C(=O)N(C[C@@]1(C#Cc3ccc(C(O)C4CCN(C)CC4)cc3)NC(=O)NC1=O)C2 (stereo partly shown) [Compound 500],"IC50 [2, 4]: 244 nM"
0.012,–,COc1ccc2c(c1)C(=O)N(C[C@@]1(C#Cc3ccc4c(N)nn(C)c4c3)NC(=O)NC1=O)C2 [Compound 718],–
7.59,–,COc1ccc2c(c1)C(=O)N(C[C@@]1(C#Cc3ccc4c(C)n[nH]c4c3)NC(=O)NC1=O)C2 [Compound 723],"IC50 [2, 4]: 2950 nM"
0.082,–,COc1ccc2c(c1)C(=O)N(C[C@@]1(C#Cc3ccc4c(c3)c(N)nn4C)NC(=O)NC1=O)C2 [Compound 746],–
–,100,COc1ccc2c(c1)C(=O)N(C[C@@]1(C#Cc3ccc(C(=NO)N4CCOCC4)cc3)NC(=O)NC1=O)C2 [Compound 941],"AUC [1, 5]: 0.058 µM·h"
5.64,–,COc1ccc2c(c1F)C(=O)N(C[C@@]1(C#Cc3ccc(C4(C)NC(=O)NC4=O)c(F)c3)NC(=O)NC1=O)C2 (stereo partly shown) [Compound 1302],–
0.025,–,COc1ccc2c(c1)C(=O)N(C[C@@]1(C#Cc3ccc(N4C(=O)CCC4C(=O)NC4CC4)cc3)NC(=O)NC1=O)C2 (stereo partly shown) [Compound 1902],–
3.46,–,COc1ccc2c(c1F)C(=O)N(C[C@@]1(C#Cc3ccc4c(c3)CCC43NC(=O)NC3=O)NC(=O)NC1=O)C2 (stereo partly shown) [Compound 2214],"IC50 [2, 4]: 186 nM"
–,398,COc1ccc2c(c1)C(=O)N(C[C@@]1(C#Cc3ccc(C4(C)NC(=O)NC4=S)cc3)NC(=O)NC1=O)C2 (stereo partly shown) [Compound 2258],"AUC [1, 5]: 0.438 µM·h"
–,566,COC(=O)C(c1ccc(C#C[C@]2(CN3Cc4ccc(OC)cc4C3=O)NC(=O)NC2=O)cc1)N1CCCNCC1 (stereo partly shown) [Compound 2271],–
–,84,COc1ccc2c(c1)C(=O)N(C[C@@]1(C#Cc3ccc(C(=NO)N4CCNC[C@@H]4C)cc3)NC(=O)NC1=O)C2 [Compound 2293],–
–,557,COc1ccc2c(c1)C(=O)N(CC1(C#Cc3cnc(N4CCC5(CC4)NC(=O)NC5=O)nc3N)NC(=O)NC1=O)C2 (stereo not shown) [Compound 2310],–
–,335,CCN1CCN(C(=NO)c2ccc(C#C[C@]3(CN4CCc5cc(OC)ccc5C4=O)NC(=O)NC3=O)cc2)CC1 [Compound 2316],–
–,639,COc1ccc2c(c1)CCN(C[C@@]1(C#Cc3ccc(C(=NO)N4CCCN(C)CC4)cc3)NC(=O)NC1=O)C2=O [Compound 2317],–
–,10000,COc1ccc2c(c1)C(=O)N(C[C@@]1(C#Cc3cccnc3)NC(=O)NC1=O)CC2 [Compound 2318],–
–,1060,COc1ccc2c(c1)CCN(C[C@@]1(C#Cc3ccc(C(=NO)N4CCOCC4)cc3)NC(=O)NC1=O)C2=O [Compound 2319],–
–,261,COc1ccc2c(c1)CCN(C[C@@]1(C#Cc3ccc(C(=NO)N4CCN(C)CC4)cc3)NC(=O)NC1=O)C2=O [Compound 2320],–
–,1100,COc1ccc2c(c1)CCN(C[C@@]1(C#Cc3ccc4c(c3)CCCC43NC(=O)NC3=O)NC(=O)NC1=O)C2=O (stereo partly shown) [Compound 2321],–
